In patent EP4105218A1, “SUBSTITUTED PYRROLO[2,3-D] PYRIMIDINES, THEIR PREPARATION AND THEIR THERAPEUTIC APPLICATION” (SANOFI, priority 2021, dated 2022) one finds IC50 data, which are given here for 4 compounds.

As usually defined, the IC50 is the point on the concentration scale where inhibition reaches its midpoint.

One test has as its target LRRK2(human) WT (Homo sapiens, UniProt Q5S007). Put plainly: LRRK2 WT assay (assay A), Lanthascreen TR-FRET. Type of test: biochemical. The following applies: assay A (values without "*"): full-length LRRK2 wild type, 500uM ATP.
The next test has as its target T1, LRRK2-G2019S(human) (Homo sapiens, UniProt Q5S007, G2019S).
T1 construct: DYKDDDDK (FLAG)
Put plainly: LRRK2-G2019S Kinase activity assay (Lanthascreen TR-FRET). Type of test: biochemical. The conditions noted are these: full-length LRRK2 G2019S, LRRKtide substrate, 1.1mM ATP. The procedure:
LRRK2-G2019S Kinase activity assay: The measurements of the activities were made using a LRRK2-G2019S(human) Kinase activity assay as described hereunder. The potency of compounds was evaluated in vitro using the Lanthascreen® technology (ThermoFisher Scientific).
The biological assay requires the […]-tagged full-length LRRK2 G2019S protein, the fluorescent peptide substrate named LRRKtide or ERM ([…] supplied by PolyPeptide Group), the ATP substrate, and different concentrations of test compounds. In a typical experiment, the reaction assay buffer contains 50mM Tris pH8.2, 1mM EGTA, 2.5mM MgCl2, 0.05% Triton X100, 0.15% BSA and 1mM DTT. The detection of the assay is performed using 1nM Terbium labeled anti-phospho-LRRKtide (ThermoFisher Scientific) diluted in a TR-FRET buffer (ThermoFisher Scientific).
The experimental procedure was performed with Greiner small volume® 384-well. The assay is started by a pre-incubation step of full-length LRRK2 G2019S mutant protein with reaction assay buffer and a dilution series of test compound for at least 30 minutes at room temperature. The working solution of compounds was prepared in a separate Greiner microplate.
The kinase reaction was initiated by addition of the ATP/LRRKtide substrate mix diluted in the reaction assay buffer. The reaction mix was incubated for at least 10 minutes at room temperature (initial velocity conditions). Reaction was stopped by addition of Terbium labeled anti-phospho-LRRKtide diluted into the detection buffer supplemented with EDTA (ThermoFisher Scientific). Plates are incubated for at least 30 minutes at room temperature and read on an Envision™ multimode plate reader (PerkinElmer) with LanthaScreen™. The TR-FRET 520:495 nm emission ratio was calculated and used to determine the IC50 value from a dose response curve fit to the 4-parameter logistic equation. The activity with respect to LRRK2 kinase in this test is given by the concentration which inhibits 50% of the LRRK2 activity (or IC50) in nM.
On the technique in general: In TR-FRET formats the signal depends on donor and acceptor labels being close together.

T1 sequence (Q5S007 whole entry G2019S): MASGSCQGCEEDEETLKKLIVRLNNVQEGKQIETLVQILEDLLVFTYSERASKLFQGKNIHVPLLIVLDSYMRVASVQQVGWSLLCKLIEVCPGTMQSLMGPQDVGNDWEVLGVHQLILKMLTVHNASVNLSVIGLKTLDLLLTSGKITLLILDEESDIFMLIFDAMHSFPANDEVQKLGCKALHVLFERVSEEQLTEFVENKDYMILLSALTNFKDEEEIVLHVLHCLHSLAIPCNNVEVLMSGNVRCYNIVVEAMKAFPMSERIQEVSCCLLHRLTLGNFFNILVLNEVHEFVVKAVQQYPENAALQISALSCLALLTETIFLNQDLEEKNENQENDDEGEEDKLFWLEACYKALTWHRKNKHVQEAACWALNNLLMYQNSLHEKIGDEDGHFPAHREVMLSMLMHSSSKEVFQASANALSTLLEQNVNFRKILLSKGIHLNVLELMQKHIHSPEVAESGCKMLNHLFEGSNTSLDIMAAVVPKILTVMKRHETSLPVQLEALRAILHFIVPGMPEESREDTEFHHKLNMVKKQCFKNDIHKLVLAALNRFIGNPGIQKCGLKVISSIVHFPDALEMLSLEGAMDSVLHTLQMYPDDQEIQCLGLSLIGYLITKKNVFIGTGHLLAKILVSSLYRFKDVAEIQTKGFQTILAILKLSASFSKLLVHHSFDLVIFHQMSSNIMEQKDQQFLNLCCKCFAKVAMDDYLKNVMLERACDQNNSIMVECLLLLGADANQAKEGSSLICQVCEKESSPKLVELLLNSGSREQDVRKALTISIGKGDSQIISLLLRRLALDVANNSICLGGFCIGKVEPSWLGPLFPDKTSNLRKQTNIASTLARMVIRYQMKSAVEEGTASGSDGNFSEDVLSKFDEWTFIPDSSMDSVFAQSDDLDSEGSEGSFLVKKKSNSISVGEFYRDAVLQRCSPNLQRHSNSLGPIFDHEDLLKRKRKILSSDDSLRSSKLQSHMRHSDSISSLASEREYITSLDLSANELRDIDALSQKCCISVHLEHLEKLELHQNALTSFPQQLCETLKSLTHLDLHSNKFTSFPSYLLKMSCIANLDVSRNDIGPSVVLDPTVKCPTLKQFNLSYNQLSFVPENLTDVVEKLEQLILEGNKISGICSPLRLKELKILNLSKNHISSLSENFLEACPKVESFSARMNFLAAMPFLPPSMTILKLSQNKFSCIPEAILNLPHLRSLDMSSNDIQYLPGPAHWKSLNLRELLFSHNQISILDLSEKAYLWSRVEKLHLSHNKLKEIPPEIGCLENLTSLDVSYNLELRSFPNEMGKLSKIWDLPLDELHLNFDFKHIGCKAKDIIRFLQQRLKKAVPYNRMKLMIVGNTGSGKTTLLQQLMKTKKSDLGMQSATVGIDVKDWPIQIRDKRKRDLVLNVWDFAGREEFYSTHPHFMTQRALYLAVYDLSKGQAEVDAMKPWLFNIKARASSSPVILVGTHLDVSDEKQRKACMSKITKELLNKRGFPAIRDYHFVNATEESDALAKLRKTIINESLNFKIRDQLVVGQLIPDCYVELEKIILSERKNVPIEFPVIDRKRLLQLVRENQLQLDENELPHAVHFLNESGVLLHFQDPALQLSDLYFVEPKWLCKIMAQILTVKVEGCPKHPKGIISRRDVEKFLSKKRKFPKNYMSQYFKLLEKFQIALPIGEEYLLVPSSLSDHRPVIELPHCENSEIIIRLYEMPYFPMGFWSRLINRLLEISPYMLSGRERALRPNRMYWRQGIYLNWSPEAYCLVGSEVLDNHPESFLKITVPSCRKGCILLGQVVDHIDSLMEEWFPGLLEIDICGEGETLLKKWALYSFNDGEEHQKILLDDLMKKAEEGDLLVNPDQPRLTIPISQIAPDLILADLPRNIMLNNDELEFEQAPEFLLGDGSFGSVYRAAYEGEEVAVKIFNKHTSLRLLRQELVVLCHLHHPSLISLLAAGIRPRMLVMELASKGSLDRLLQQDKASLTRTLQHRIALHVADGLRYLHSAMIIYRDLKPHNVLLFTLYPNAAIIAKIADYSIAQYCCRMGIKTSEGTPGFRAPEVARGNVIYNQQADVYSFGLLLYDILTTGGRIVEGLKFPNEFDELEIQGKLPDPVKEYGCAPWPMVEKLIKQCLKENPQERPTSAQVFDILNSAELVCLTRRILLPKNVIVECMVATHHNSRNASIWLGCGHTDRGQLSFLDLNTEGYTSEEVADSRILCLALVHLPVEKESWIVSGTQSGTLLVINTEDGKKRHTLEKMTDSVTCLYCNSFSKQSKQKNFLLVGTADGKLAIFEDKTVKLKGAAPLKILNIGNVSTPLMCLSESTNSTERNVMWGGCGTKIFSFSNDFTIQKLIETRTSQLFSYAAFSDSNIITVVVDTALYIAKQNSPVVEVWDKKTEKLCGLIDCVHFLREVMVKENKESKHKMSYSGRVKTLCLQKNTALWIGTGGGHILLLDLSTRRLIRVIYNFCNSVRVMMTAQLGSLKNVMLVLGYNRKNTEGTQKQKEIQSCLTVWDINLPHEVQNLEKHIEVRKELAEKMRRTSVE
LRRK2(human) WT, sequence (Q5S007 whole entry): as the sequence (Q5S007 whole entry G2019S) above, with S2019G counted along it

In the case of `CC(=O)N1CC(Oc2nn(C)cc2Nc2ncc3cc(C#N)n([C@H]4COC[C@@H]4C)c3n2)C1(C)C` (single isomer, unassigned) [Example 17], the 50% inhibitory concentration (IC50) on LRRK2(human) WT and on LRRK2-G2019S(human) was 3 nM throughout.
Regarding `CC(=O)N1CC(Oc2nn(C)cc2Nc2ncc3cc(C#N)n([C@H]4COC[C@@H]4C)c3n2)C1(C)C` (single isomer, unassigned) [Example 18], the IC50 against LRRK2(human) WT and against LRRK2-G2019S(human) was 2 nM throughout.
`COCC(C)n1c(C#N)cc2cnc(Nc3cn(C)nc3OC3COC3C)nc21` (single isomer, unassigned) [Example 87, 7-[(1S)-2-methoxy-1-methyl-ethyl]-2-[[1-methyl-3-[(2S, 3R)-2-methyloxetan-3-yl]oxy-pyrazol-4-yl]amino]pyrrolo[2,3-d]pyrimidine-6-carbonitrile or 7-[(1S)-2-methoxy-1-methyl-ethyl]-2-[[1-methyl-3-[(2R, 3S)-2-methyloxetan-3-yl]oxy-pyrazol-4-yl]amino]pyrrolo[2,3-d]pyrimidine-6-carbonitrile] gave an IC50 on LRRK2-G2019S(human) of 5 nM. This counts as single-digit nanomolar.
At LRRK2-G2019S(human), `[2H]C([2H])([2H])n1cc(Nc2ncc3cc(C#N)n(C(C)COC)c3n2)c(OC2COC2C)n1` (single isomer, unassigned) [Example 89, 7-[(1S)-2-methoxy-1-methyl-ethyl]-2-[[3-[(2S,3R)-2-methyloxetan-3-yl]oxy-1-(methyl-d3)pyrazol-4-yl]amino]pyrrolo[2,3-d]pyrimidine-6-carbonitrile or 7-[(1S)-2-methoxy-1-methyl-ethyl]-2-[[3-[(2R,3S)-2-methyloxetan-3-yl]oxy-1-(methyl-d3)pyrazol-4-yl]amino]pyrrolo[2,3-d]pyrimidine-6-carbonitrile] registered an IC50 of 5 nM.
